The subject of one assay is STAT3 pathway. To be noted: read-out: STAT3 pathway activity cellular IC50; cited from earlier work.
Assay [1] concerns CD8^+ T cells producing IFN-γ. The assay can be described thus: Tumor antigen-specific T cell immune response (IFN-γ producing spleen CD8+ T cells). To be noted: in the presence of the tumor antigen, vs control samples. The assay is classed as in vivo, Apc^Min/+ mice. An excerpt: All animals were housed in Association for Assessment and Accreditation of Laboratory Animal Care-approved facilities in static microisolator cages. Testing confirmed the mice were pathogen-free and there was no evidence of murine Helicobacter spp. by culture or PCR. Apc^Min/+ mice on a C57BL/6J background were originally obtained from the Jackson Laboratory (Bar Harbor, Me.) and bred in-house to wild-type (wt) C57BL/6J mice to generate Apc^Min/+. 17 week old Apc^Min/+ mice or matched wild-type controls were treated with either vehicle alone, or BBI608 at 200 mg/kg daily by oral gavage (p.o., q.d.) for 4 consecutive days (n=4/group). Body weight and clinical signs were monitored throughout the course of the treatment. On treatment day 4, the animals were sacrificed 4 hours after the last dose and the tumors in the Apc^Min/+ small intestine or a piece of normal intestine, from wild type controls, were harvested.
Spleen tissues were collected from the above APC^Min/+ mice at the time of tumor harvesting. CD8^+ T cells were separated using a CD8^+ T cells isolation kit according to the manufacturer's protocol (STEMCELL Technology). […] Intracellular IFN-γ was then stained with Alexa-647 labeled rat anti-mouse IFN-γ antibody (1:100, BD) and CD8^+ T cells producing IFN-γ were analyzed under the Zeiss fluorescence microscope described above.

Assay [2] relates to IDO1. Put plainly: Endogenous IDO1 mRNA in SKOV3 cells (qPCR). To be noted: 6 or 24 hour, 1 μM or 2 μM, normalized to GAPDH. The class given is cell-based. From the text: Specifically, RNA was isolated, reverse transcribed, and the cDNA was used in a qPCR assay to determine the mRNA levels for IDO1. Data was normalized to GAPDH.
Assay [3] deals with IDO1. The assay can be described thus: IDO1 protein levels in SKOV3 cells. The assay is classed as cell-based.
Assay [4] has as its system β-CATENIN, NANOG, SMO, and SOX2. The assay can be described thus: Self-renewal gene expression in FaDu cancer stem cells. The class given is cell-based. On the set-up: dose or concentration left out as unconfirmed. To be noted: 24 hours.
The next assay deals with CT26 tumor cells. The assay can be described thus: Tumor sphere formation of cells dissociated from treated CT26 tumors. The class given is cell-based, mouse. To be noted: 1000 live tumor cells from treated tumors, 10 days in culture, vs control. The procedure:
Portions of tumor tissues were dissociated into a single cell suspension by enzymatic digestion with DMEM (Gibco) containing 200 U/mL Collagenase (Sigma) and 100 U/mL DNAse I (Sigma) at 37° C. for 30 minutes. Cells were then filtered through 40 μm strainers and incubated for 5 min at room temperature in ACK lysis buffer (Thermo Fisher) to remove red blood cells. 1000 live tumor cells, as assessed by Trypan blue (Gibco) staining, were then suspended in 1 mL sphere medium and plated on a low-attachment cell culture 12-well plate in triplicate. Cancer sphere culture medium included B-27 (Gibco), 20 ng/ml EGF (R&D), 10 ng/ml basicFGF (R&D), 0.4% BSA Gemini, and 0.3% agarose in DMEM/F12 (Gibco). After 10 days in culture, the number of tumor spheres was counted.

The next assay has as its system CD44. The assay can be described thus: CD44 protein expression in ovarian cancer xenograft model (SKOV-3). The class given is in vivo, mouse. To be noted: SKOV-3 xenograft, 0, 1, 2, 4, 8, 16, or 24 hours after treatment. Here is the method: At the end of treatment, tumors were harvested from euthanized mice. Part of the dissected tumors were fixed overnight in 3.7% or 10% neutral buffered formaldehyde at 4° C., and then paraffin embedded, cut to 4-5 micron sections, and affixed onto positively charged slides. After baking and deparaffinization, the slides with tumor or control tissues were incubated in a 10 mM sodium citrate solution pH=6.0 for antigen retrieval at 98° C. Afterwards, slides were probed with primary antibodies against P-STAT3 (Tyr705) (rabbit, Cell Signaling, 1:100), β-CATENIN (mouse, Santa Cruz, 1:400), IL-6 (mouse, Novus Biol., 1:100), PD-L1 (rabbit, Cell Signaling, 1:100), PCNA (mouse, Santa Cruz, 1:5000), CD8a (rabbit, Santa Cruz, 1:30), CD44 (rat, BioLegend, 1:50), CD44 (mouse, Cell Signaling, 1:100), CD133 (mouse, Miltenyi, 1:100), IDO1 (mouse, Millipore 1:100), or/and CD3 (rabbit, Abcam, 1:100) at 4° C. overnight, and then AlexaFluor fluorescent dye-conjugated secondary antibodies (Invitrogen, 1:300 or 1:500) at room temperature for one hour. After mounting in ProLong mounting medium containing DAPI (Invitrogen), the slides were examined on a Zeiss Axio Imager M2 upright fluorescence microscope with a 20× objective and analyzed with Zen software.

For the next assay, the system named is PD-L1. Put plainly: IFNγ-induced PD-L1 expression in CT26 cells (Western blotting). The class given is cell-based, mouse. To be noted: 100 ng/ml IFNγ, 24 hours, 1 μM BBI608. Here is the method:
3×10^5 CT26 cells in 6-well plated were treated with 100 ng/ml IFNγ for 24 hours at the presence of control DMSO or 1 μM BBI608. Cells were washed twice with ice-cold PBS and lysed in lysis buffer [50 mM Hepes (pH 7.5), 1% Nonidet P-40, 150 mM NaCl, 1 mM EDTA, and 1× protease and phosphatase inhibitor mixture (EMD Millipore)]. Soluble protein (20 μg) was separated by SDS/PAGE and transferred to nitrocellulose membranes. Primary antibodies against P-STAT3 (Y705), PD-L1, and ACTIN (Sigma) were used in this study. The antigen-antibody complexes were visualized by enhanced chemiluminescence (BioRad).

In assay [5] the test system is IL-6 and other STAT3 target genes. Put plainly: STAT3 target gene expression in HeLa cells. The assay is classed as cell-based.
The next assay has as its system CD8^+ T cells. The assay can be described thus: Tumor infiltrating CD8+ T cells in Apc^Min/+ mouse model of colon cancer (immunofluorescence). The assay is classed as in vivo, Apc^Min/+ C57BL/6J mice. To be noted: BBI608 200 mg/kg p.o. q.d. 4 days, vs control group. The procedure:
At the end of treatment, tumors were harvested from euthanized mice. Part of the dissected tumors were fixed overnight in 3.7% or 10% neutral buffered formaldehyde at 4° C., and then paraffin embedded, cut to 4-5 micron sections, and affixed onto positively charged slides. After baking and deparaffinization, the slides with tumor or control tissues were incubated in a 10 mM sodium citrate solution pH=6.0 for antigen retrieval at 98° C. […] After mounting in ProLong mounting medium containing DAPI (Invitrogen), the slides were examined on a Zeiss Axio Imager M2 upright fluorescence microscope with a 20× objective and analyzed with Zen software.
All animals were housed in Association for Assessment and Accreditation of Laboratory Animal Care-approved facilities in static microisolator cages. […] Body weight and clinical signs were monitored throughout the course of the treatment. […]
CD8^+ levels were analyzed by immunofluorescence.

The source of these data is patent US20180140572A1, “COMPOSITIONS COMPRISING A CANCER STEMNESS INHIBITOR AND AN IMMUNOTHERAPEUTIC AGENT FOR USE IN TREATING CANCER” (Boston Biomedical, Inc., priority 2015, published 2018).

Take `CC(=O)c1cc2c(o1)C(=O)c1ccccc1C2=O` [BBI608, 2-acetylnaphtho[2,3-b]furan-4,9-dione]: in the assay with STAT3 pathway, the IC50 is around 250 nM. In assay [1], the “percentage of CD8^+ T cells producing INF-γ” value is “higher percentage”. Moreover, the “endogenous IDO1 expression (mRNA)” value in the assay with IDO1 [2] is given as “inhibited”. The IDO1 protein levels entry with IDO1 [3] (8 or 24 hours) and in the assay with IDO1 [3] (3 hours) was “reduced” throughout. Also, the “expression of self-renewal genes β-CATENIN, NANOG, SMO, and SOX2” value in [4] was “decreased expression”. The “number of tumor spheres” value in the assay with CT26 tumor cells is on record as “significantly lower numbers of spheres than control”. Further, the CD44 protein expression result with CD44 is recorded as “inhibited CD44 protein expression in a time-dependent manner”. In the assay on PD-L1, the “IFNγ-induced PD-L1 expression” value was “reduced”. Besides, the “IL-6 and other STAT3 target genes expression” value in assay [5] is on record as “downregulated”. For the same compound, the “number of tumor infiltrating CD8^+ T cells” value in the assay on CD8^+ T cells was “increased the number of tumor infiltrating CD8^+ T cells significantly”.
